Counter-ions that a name gives are not always drawn.
Tests used:
PI 3-kinase delta [1] = target: T1, PI 3-kinase delta (Homo sapiens, UniProt O00329); assay: TR-FRET Adapta assay, assay F; conditions: read-out: Assay F PI3Kδ IC50
PI 4-kinase beta = PI 4-kinase beta (Homo sapiens, UniProt Q9UBF8); assay: Kinase Glo Luminescent Kinase Assay (Kglo), assay D; type: biochemical; conditions: read-out: Assay D PI4Kβ IC50
mTOR = mTOR (Homo sapiens, UniProt P42345); assay: Lanthascreen kinase binding assay, assay G; conditions: read-out: Assay G mTOR IC50
Protocol: Lanthascreen™ Kinase Binding Assay for mTOR (G)
Binding of an inhibitor to the kinase competes for binding with the tracer, resulting in a loss of FRET.
50 nL of compound dilutions were dispensed onto white 384-well small volume polystyrene plate.

PI 3-kinase alpha [2] = target: T2, PI 3-kinase alpha (Homo sapiens, UniProt P42336); assay: Kinase Glo Luminescent Kinase Assay (Kglo), assay A; type: biochemical; conditions: read-out: Assay A PI3Kα IC50
Target sequence in this assay (P42336 whole entry): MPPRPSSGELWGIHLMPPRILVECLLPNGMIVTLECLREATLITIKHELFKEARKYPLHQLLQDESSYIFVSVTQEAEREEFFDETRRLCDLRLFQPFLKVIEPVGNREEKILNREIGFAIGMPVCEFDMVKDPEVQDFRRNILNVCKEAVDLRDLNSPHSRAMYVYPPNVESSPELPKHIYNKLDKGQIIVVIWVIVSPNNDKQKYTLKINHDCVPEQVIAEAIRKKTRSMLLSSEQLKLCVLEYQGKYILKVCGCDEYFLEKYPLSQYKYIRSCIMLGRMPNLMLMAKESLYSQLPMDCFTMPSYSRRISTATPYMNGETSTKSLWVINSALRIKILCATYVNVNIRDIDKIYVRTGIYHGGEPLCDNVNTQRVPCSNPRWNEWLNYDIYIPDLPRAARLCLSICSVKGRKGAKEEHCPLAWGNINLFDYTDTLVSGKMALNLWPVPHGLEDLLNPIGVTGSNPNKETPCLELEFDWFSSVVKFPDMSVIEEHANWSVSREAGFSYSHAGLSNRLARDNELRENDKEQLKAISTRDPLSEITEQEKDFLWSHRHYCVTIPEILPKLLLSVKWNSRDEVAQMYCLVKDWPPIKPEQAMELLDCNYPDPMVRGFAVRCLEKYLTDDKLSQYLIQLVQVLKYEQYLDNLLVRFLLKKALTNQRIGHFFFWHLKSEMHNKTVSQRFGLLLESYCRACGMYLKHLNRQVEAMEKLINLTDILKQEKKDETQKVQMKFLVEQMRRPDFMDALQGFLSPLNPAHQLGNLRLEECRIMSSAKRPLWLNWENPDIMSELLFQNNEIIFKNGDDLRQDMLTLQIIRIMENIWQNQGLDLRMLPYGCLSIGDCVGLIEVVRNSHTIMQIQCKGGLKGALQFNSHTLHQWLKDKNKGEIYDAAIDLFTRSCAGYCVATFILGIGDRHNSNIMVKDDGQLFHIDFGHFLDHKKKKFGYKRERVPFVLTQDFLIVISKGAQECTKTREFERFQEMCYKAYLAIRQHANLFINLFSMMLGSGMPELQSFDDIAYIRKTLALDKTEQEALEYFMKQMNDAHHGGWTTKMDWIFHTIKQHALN
Protocol: (§1) Kinase Glo Luminescent Kinase Assay (Kglo) for Pb 3-Kinase Alpha (A), Pb 3-Kinase Beta (B), Vps34 (C), Pb 4-Kinase Beta (D)
(§2) The Kinase Glo Luminescent Kinase Assay (Promega, Madison/Wis., USA) is a homogeneous HTS method of measuring kinase activity by quantifying the amount of ATP remaining in solution following a kinase reaction.
(§3) L-α-phosphatidylinositol (PI), provided as 10 mg/ml solution in methanol, was transferred into a glass tube and dried under a nitrogen beam. It was then resuspended in 3% OctylGlucoside (1-0-n-octyl-beta-D-glucopyranoside) by vortexing and stored at 4° C. 5 μL of a mix of PI/OctylGlucoside with the PI 3-kinase alpha and PI 3-kinase beta subtypes, or Vps34 or PI 4-kinase beta were added. Kinase reactions were started by the addition of 5 μl of an ATP-mix containing in a final volume 10 μL 10 mM TRIS-HCl pH 7.5, 3 mM MgCl2, 50 mM NaCl, 0.05% CHAPS, 1 mM DTT and 1 μM ATP at room temperature.
(§4) All fits were performed with the program XLfit4 (ID Business Solutions, Guildford, UK).

Vps34 = Vps34 (Homo sapiens, UniProt Q8NEB9); assay: Kinase Glo Luminescent Kinase Assay (Kglo), assay C; type: biochemical; conditions: read-out: Assay C VPS34 IC50
PI 3-kinase beta [3] = target: T3, PI 3-kinase beta (Homo sapiens, UniProt P42338); assay: Kinase Glo Luminescent Kinase Assay (Kglo), assay B; type: biochemical; conditions: read-out: Assay B PI3Kβ IC50
Target sequence in this assay (P42338 whole entry): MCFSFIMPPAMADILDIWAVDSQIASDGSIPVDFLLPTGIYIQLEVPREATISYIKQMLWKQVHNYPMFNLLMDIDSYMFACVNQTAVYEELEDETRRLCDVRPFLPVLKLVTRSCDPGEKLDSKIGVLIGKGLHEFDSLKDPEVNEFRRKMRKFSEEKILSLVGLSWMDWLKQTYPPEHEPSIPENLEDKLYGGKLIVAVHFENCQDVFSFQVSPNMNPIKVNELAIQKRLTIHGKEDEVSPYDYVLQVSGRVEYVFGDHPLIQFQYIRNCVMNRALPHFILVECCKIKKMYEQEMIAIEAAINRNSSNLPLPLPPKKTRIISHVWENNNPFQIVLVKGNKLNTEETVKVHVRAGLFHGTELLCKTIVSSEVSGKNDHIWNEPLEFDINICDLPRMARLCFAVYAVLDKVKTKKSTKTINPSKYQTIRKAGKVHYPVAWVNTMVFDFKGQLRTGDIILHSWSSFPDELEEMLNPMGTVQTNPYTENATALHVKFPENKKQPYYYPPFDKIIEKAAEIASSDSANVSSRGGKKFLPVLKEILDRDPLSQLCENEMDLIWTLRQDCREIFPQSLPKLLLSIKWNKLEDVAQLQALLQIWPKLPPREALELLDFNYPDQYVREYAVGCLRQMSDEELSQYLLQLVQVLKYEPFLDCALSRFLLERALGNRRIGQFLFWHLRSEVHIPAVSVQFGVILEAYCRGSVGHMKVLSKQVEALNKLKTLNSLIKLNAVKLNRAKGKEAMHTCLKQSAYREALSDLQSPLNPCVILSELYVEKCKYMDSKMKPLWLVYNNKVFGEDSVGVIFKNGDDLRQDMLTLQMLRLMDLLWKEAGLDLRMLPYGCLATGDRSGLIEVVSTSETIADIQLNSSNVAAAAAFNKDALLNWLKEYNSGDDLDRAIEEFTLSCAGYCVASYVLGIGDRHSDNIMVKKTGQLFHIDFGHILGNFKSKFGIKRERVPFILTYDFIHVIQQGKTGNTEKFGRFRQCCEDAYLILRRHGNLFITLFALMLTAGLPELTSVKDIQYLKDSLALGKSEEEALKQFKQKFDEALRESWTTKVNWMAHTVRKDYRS
Target sequence in this assay (P27986 461-568 partner): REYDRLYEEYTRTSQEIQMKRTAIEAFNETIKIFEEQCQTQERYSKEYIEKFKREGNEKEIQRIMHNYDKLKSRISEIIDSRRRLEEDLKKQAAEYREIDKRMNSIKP
Protocol: as §1, §2, §3, §4

PI 3-kinase alpha [4] = target: T2, PI 3-kinase alpha; assay: Cellular assay H1, p-Akt (S473) in Rat-1 cells, Surefire format; type: cell-based; conditions: non-asterisked data: version H1 (Surefire format), Rat-1 cells; read-out: Assay H PI3Kα IC50
Target sequence in this assay (P42336 whole entry): as the sequence (P42336 whole entry) above
Target sequence in this assay (Q63787 whole entry partner): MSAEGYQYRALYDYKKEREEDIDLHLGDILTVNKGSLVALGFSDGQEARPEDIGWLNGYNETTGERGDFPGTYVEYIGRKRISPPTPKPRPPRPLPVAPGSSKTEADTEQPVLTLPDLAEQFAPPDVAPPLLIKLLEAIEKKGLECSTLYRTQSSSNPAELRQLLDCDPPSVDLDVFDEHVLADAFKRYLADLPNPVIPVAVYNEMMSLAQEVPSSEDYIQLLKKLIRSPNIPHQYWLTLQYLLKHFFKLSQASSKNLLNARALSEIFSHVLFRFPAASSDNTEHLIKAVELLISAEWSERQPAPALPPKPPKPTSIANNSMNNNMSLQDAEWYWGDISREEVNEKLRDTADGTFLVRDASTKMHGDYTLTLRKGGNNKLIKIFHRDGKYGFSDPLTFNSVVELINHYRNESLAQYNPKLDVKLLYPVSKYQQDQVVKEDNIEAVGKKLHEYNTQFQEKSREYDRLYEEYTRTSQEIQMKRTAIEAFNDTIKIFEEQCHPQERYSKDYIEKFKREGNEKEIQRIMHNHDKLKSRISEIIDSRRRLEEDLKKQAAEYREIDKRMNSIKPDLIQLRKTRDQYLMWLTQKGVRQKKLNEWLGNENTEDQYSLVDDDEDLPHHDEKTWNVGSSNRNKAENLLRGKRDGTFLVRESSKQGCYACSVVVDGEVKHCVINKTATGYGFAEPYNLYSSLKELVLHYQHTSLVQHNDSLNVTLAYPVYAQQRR

PI 3-kinase delta [5] = target: T1, PI 3-kinase delta; assay: Cellular assay J1, p-Akt (S473) in Rat-1 cells, Surefire format; type: cell-based; conditions: non-asterisked data: version J1 (Surefire format), Rat-1 cells; read-out: Assay J PI3Kδ IC50
PI 3-kinase gamma [6] = target: T4, PI 3-kinase gamma (Homo sapiens, UniProt P48736); assay: TR-FRET Adapta assay, assay E; type: biochemical; conditions: read-out: Assay E PI3Kγ IC50
T4 sequence (P48736 whole entry): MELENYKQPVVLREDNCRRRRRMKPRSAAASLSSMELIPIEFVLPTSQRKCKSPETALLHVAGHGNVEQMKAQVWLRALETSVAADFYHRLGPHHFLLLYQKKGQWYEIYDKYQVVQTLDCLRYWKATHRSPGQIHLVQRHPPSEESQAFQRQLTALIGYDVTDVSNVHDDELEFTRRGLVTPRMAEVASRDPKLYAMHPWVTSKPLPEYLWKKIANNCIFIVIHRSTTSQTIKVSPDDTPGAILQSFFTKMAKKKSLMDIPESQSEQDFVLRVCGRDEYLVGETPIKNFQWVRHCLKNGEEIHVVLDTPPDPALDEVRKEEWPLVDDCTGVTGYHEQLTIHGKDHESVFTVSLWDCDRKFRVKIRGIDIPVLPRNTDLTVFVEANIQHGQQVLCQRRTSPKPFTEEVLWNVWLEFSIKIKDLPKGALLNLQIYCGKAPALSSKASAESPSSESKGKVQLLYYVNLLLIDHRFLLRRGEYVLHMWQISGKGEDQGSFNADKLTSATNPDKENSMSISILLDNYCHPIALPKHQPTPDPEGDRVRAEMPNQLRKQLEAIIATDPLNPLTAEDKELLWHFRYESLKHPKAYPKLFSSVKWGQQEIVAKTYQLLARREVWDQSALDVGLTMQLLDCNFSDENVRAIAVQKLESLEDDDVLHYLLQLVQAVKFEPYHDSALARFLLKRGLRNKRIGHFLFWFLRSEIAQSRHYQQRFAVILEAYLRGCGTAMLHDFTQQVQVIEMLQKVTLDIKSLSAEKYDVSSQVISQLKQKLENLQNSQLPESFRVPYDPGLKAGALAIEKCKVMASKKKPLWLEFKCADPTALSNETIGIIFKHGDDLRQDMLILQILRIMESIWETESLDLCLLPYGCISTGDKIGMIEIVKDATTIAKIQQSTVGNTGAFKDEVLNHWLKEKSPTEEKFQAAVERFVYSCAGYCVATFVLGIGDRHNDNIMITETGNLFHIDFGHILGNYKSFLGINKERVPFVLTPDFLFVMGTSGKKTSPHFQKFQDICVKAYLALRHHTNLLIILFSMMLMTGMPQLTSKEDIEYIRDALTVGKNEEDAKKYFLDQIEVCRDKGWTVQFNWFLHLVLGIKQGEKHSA

PI 3-kinase gamma [7] = target: T4, PI 3-kinase gamma; assay: Cellular U937 AKT assay K1 (MSD); type: cell-based; conditions: U937 cells, K1 format; read-out: Assay K1 PI3Kγ IC50
PI 3-kinase beta [8] = target: T3, PI 3-kinase beta; assay: Cellular assay I1, p-Akt (S473) in Rat-1 cells, Surefire format; type: cell-based; conditions: non-asterisked data: version I1 (Surefire format), Rat-1 cells; read-out: Assay I PI3Kβ IC50
Target sequence in this assay (P42338 whole entry): as the sequence (P42338 whole entry) above
Target sequence in this assay (Q63787 whole entry partner): as the sequence (Q63787 whole entry partner) above

[9] = Microsomal clearance assay (M); conditions: intrinsic clearance in rat liver microsomes
Protocol: The experiments were performed in 96-well glass plates at 37° C. on an automated Tecan EVO platform. Test compounds at a concentration of 10 mM in pure DMSO were diluted 1:1000 in water to 10 μM. […] Reactions were initiated by the addition of 150 μL of a cofactor solution containing 2 mM NADPH.

Sequence of PI 4-kinase beta (Q9UBF8 whole entry): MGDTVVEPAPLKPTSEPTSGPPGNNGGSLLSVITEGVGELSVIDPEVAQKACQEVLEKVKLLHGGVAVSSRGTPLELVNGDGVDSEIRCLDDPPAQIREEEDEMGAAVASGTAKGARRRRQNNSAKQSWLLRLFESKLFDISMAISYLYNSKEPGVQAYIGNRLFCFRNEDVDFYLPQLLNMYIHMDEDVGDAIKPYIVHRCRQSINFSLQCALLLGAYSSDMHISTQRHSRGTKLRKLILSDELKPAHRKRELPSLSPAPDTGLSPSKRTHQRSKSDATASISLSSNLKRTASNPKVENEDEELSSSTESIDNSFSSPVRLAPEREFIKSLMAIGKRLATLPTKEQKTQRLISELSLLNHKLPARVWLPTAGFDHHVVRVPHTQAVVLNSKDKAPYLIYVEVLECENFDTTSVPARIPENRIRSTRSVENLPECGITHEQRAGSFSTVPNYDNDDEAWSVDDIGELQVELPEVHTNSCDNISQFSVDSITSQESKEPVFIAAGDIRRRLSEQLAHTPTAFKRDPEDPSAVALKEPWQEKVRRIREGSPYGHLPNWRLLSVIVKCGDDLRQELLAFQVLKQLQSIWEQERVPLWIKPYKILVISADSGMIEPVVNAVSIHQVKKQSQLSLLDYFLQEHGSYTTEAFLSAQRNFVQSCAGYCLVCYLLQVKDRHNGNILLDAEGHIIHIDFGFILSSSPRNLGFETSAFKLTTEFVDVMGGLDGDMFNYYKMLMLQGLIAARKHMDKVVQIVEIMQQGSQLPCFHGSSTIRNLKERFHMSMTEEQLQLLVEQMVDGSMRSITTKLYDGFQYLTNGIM

SMILES	IC50 (PI 3-kinase delta [1]) [nM]	IC50 (PI 4-kinase beta) [nM]	IC50 (mTOR) [nM]	IC50 (PI 3-kinase alpha [2]) [nM]	IC50 (Vps34) [nM]	IC50 (PI 3-kinase beta [3]) [nM]	IC50 (PI 3-kinase alpha [4]) [nM]	IC50 (PI 3-kinase delta [5]) [nM]	IC50 (PI 3-kinase gamma [6]) [nM]	IC50 (PI 3-kinase gamma [7]) [nM]	IC50 (PI 3-kinase beta [8]) [nM]	Assay M RLM CI(int) [9] [µL/min/mg]
Cc1ccc(S(=O)(=O)NCCC(C)(C)O)cc1-c1cnc(N)c(-n2cnc(C(C)C)n2)n1 [Example 66, 3-(5-Amino-6-(3-isopropyl-1H-1,2,4-triazol-1-yl)pyrazin-2-yl)-N-(3-hydroxy-3-methylbutyl)-4-methylbenzenesulfonamide]	80	7940	5980	190	> 9100	> 9100	990	730	6	109	5920	311
Cc1cc(Cl)c(S(=O)(=O)NCC(C)(C)O)cc1-c1cnc(N)c(-n2cncn2)n1 [Example 124, 5-(5-Amino-6-(1H-1,2,4-triazol-1-yl)pyrazin-2-yl)-2-chloro-N-(2-hydroxy-2-methylpropyl)-4-methylbenzenesulfonamide]	160	420	710	40	> 10000	100	250	290	22	38	810	79
Cc1ccc(S(=O)(=O)NCCC(C)(C)O)cc1-c1cnc(N)c(-c2cc(C3CC3)no2)n1 [Example 78, 3-(5-Amino-6-(3-cyclopropylisoxazol-5-yl)pyrazin-2-yl)-N-(3-hydroxy-3-methylbutyl)-4-methylbenzenesulfonamide]	180	1550	2350	240	> 9550	2200			13	66		152
CCc1noc(-c2nc(-c3cc(S(=O)(=O)N4CCC(CO)CC4)ccc3C)cnc2N)n1 [Example 141, (1-((3-(5-Amino-6-(3-ethyl-1,2,4-oxadiazol-5-yl)pyrazin-2-yl)-4-methylphenyl)sulfonyl)piperidin-4-yl)methanol]	340	> 9100	> 9100	1770	> 9100	> 9100	4700	5310	54	947	8750	
Cc1ccc(S(=O)(=O)NCC2COC2)cc1-c1cnc(N)c(-n2cncn2)n1 [Example 131, 3-(5-Amino-6-(1H-1,2,4-triazol-1-yl)pyrazin-2-yl)-4-methyl-N-(oxetan-3-ylmethyl)benzenesulfonamide]	760	4950	3700	370	4300	2450			42	493		42
Cc1ccc(S(=O)(=O)NC[C@H]2C[C@@H](O)C2)cc1-c1cnc(N)c(-c2cc(C3CC3)no2)n1 [Example 100, 3-(5-Amino-6-(3-cyclopropylisoxazol-5-yl)pyrazin-2-yl)-N-(((1s,3s)-3-hydroxycyclobutyl)methyl)-4-methylbenzenesulfonamide]	680	5750	> 9550	500	7200	5300			3	74		95
Cc1ccc(S(=O)(=O)NCC2COCCN2C)cc1-c1cnc(N)c(-c2cn(C)nc2C)n1 (centres unmarked) [Example 128.2, 3-(5-Amino-6-(1,3-dimethyl-1H-pyrazol-4-yl)pyrazin-2-yl)-4-methyl-N-((4-methylmorpholin-3-yl)methyl)benzenesulfonamide]	450	> 10000		270	> 10000		1910	1570	49	90		27
Cc1ncc(-c2nc(-c3cc(S(=O)(=O)NC4CC(O)C4)ccc3C)cnc2N)s1 (mixture of isomers) [Example 43, 3-(5-Amino-6-(2-methylthiazol-5-yl)pyrazin-2-yl)-N-(3-hydroxycyclobutyl)-4-methylbenzenesulfonamide]	220	1400		50	900	200	1390	1190	6	15	> 10000	55
Cc1nc(-c2nc(-c3cc(S(=O)(=O)NCC(C)(C)O)ccc3C)cnc2N)c(C)s1 [Example 40, 3-(5-Amino-6-(2,5-dimethylthiazol-4-yl)pyrazin-2-yl)-N-(2-hydroxy-2-methylpropyl)-4-methylbenzenesulfonamide]	840	> 10000	3800	760	> 10000	1400			36	40		92
Cc1ccc(S(=O)(=O)NC[C@H]2CCCN2)cc1-c1cnc(N)c(-c2cn(C)nc2C)n1 [Example 106, (R)-3-(5-Amino-6-(1,3-dimethyl-1H-pyrazol-4-yl)pyrazin-2-yl)-4-methyl-N-(pyrrolidin-2-ylmethyl)benzenesulfonamide hydrochloride]	140	5600		100	> 10000	750	> 10000	> 10000	25	2280	> 10000	29

The remaining lines, values ahead:

IC50 (PI 3-kinase delta [1]) [nM]	IC50 (PI 4-kinase beta) [nM]	IC50 (mTOR) [nM]	IC50 (PI 3-kinase alpha [2]) [nM]	IC50 (Vps34) [nM]	IC50 (PI 3-kinase beta [3]) [nM]	IC50 (PI 3-kinase alpha [4]) [nM]	IC50 (PI 3-kinase delta [5]) [nM]	IC50 (PI 3-kinase gamma [6]) [nM]	IC50 (PI 3-kinase gamma [7]) [nM]	IC50 (PI 3-kinase beta [8]) [nM]	Assay M RLM CI(int) [9] [µL/min/mg]	SMILES
380	7700	5610	820	7990	> 9100	4070	2880	161	860	1720		Cc1ccc(S(=O)(=O)NCCC(C)(C)O)cc1-c1cnc(N)c(-c2cccnc2Cl)n1 [Example 119.6]
40	6500	6900	100	> 9100	2800	5040	1610	6	34	2150	203	Cc1ccc(S(=O)(=O)NCCC(C)(C)O)cc1-c1cnc(N)c(-c2cnn(Cc3ccncc3)c2)n1 [Example 119.39]
340	4400	3300	130	> 10000	650			31	66		493	Cc1ccc(S(=O)(=O)NCC2(CO)CCCC2)cc1-c1cnc(N)c(-n2cncn2)n1 [Example 127.25]
170	> 9100	> 9100	220	> 9100	4410			34	1280		48	Cc1cc(-c2nc(-c3cc(S(=O)(=O)NCCC(C)(C)O)ccc3C)cnc2N)n(C)n1 [Example 119.36]
1200	5400	> 10000	860	> 10000	1300		> 10000	104	137	> 10000		Cc1ccc(S(=O)(=O)NOCCN(C)C)cc1-c1cnc(N)c(-n2cncn2)n1 [Example 112.2, 3-(5-Amino-6-(1H-1,2,4-triazol-1-yl)pyrazin-2-yl)-N-(2-(dimethylamino)ethoxy)-4-methylbenzenesulfonamide]
260	> 9100	> 9100	300	> 9100	> 9100		5860	28	144	> 10000	170	Cc1cc(-c2nc(-c3cc(S(=O)(=O)NCCC(C)(O)C(F)(F)F)ccc3C)cnc2N)ccn1 (centres unmarked) [Example 129.13, 3-(5-amino-6-(2-methylpyridin-4-yl)pyrazin-2-yl)-4-methyl-N-(4,4,4-trifluoro-3-hydroxy-3-methylbutyl)benzenesulfonamide]
100	2460	8690	150	> 9100	3600			12	85		188	Cc1ccc(S(=O)(=O)NCCC(C)(C)O)cc1-c1cnc(N)c(-c2cccs2)n1 [Example 119.45]

Reference: patent US10004732B2 (Novartis AG, priority 2014, dated 2018)
